Patent US20260028326A1, “COMPOUND BASED ON ISOINDOLINE-SUBSTITUTED GLUTARIMIDE BACKBONE AND USE THEREOF” (GLUETACS THERAPEUTICS (SHANGHAI) CO., LTD., priority 2022, published 2026)

What was measured:
IKZF1 protein = IKZF1 protein (Homo sapiens (Human), UniProt Q13422+Q96SW2); assay: Western-blot assay of substrate protein degradation in hPBMC, IKZF1; format: cell-based; details: hPBMC cells, compound 500 nM, 24 hours, Western blot
Protocol: (§1) After treating the cells with the compounds for 24 hours, the cells were collected and lysed using RIPA protein lysate containing phosphatase inhibitors. The lysate was then placed on ice for 30-60 minutes and centrifuged. The supernatant was aspirated as the extracted total cell protein. The protein concentration of the supernatant was determined using the conventional BCA (Bicinchoninic Acid) assay. The supernatant was then mixed with 4×SDS sample loading buffer, denatured at 95° C. for 5 minutes, and then subjected to SDS-PAGE electrophoresis on a polyacrylamide gel, followed by transfer to a nitrocellulose membrane (NC membrane). The membrane was blocked with blocking buffer at room temperature for 1-2 hours, and then antibody incubation and detection were carried out according to the antibody instructions provided by Cell Signaling Technology.
(§2) Half-Maximal Degradation Concentration value (the drug concentration required for degrading proteins by 50%, abbreviated as DC50) reads method: comparing the gray values of the Western blotting bands for the drug treatment with the gray values of the Western blotting band for the DMSO control, and reading the drug concentration range corresponding to the gray value of the Western blotting bands for the drug treatment which is equal to half of the gray value of the Western blotting band for the DMSO control.
(§3) DC50 value could also be calculated as follows: using software ImageJ to quantify the gray values of the Western blotting bands for the drug treatment, fitting the relationship curve between drug concentrations and gray values, and from the fitted curve, calculating the drug concentration corresponding to half of the gray value of the Western blotting band for the DMSO control.

[1] = target: human Cereblon WT GST-tagged protein (Homo sapiens (Human), UniProt Q96SW2); assay: CRBN-binding affinity, HTRF (CEREBLON BINDING kit)
human Cereblon WT GST-tagged protein, sequence (Q96SW2 whole entry): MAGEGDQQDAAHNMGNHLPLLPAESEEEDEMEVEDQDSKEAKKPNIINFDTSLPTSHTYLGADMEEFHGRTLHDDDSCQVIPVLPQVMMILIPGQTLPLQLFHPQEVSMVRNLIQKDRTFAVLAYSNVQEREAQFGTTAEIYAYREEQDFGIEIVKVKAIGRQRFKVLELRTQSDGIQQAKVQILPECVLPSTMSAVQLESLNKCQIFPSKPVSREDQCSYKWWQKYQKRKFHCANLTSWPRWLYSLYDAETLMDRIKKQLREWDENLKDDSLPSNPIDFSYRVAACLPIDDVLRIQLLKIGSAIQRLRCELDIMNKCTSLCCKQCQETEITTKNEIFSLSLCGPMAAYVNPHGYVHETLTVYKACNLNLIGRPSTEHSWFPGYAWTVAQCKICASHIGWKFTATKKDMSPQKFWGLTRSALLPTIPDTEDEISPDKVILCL
How it was run: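 GST-tagged human WT Cereblon incubated with compound, then Thalidomide-Re tracer and anti-GST Eu antibody added. Displacement read by HTRF, reported as CRBN binding inhibition rate against blank control wells without protein.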

GSPT1 protein = GSPT1 protein (Homo sapiens (Human), UniProt P15170+Q96SW2); assay: Western-blot assay of substrate protein degradation in hPBMC, GSPT1; format: cell-based; details: hPBMC cells, compound 500 nM, 24 hours, Western blot
GSPT1 protein, sequence (P15170 whole entry): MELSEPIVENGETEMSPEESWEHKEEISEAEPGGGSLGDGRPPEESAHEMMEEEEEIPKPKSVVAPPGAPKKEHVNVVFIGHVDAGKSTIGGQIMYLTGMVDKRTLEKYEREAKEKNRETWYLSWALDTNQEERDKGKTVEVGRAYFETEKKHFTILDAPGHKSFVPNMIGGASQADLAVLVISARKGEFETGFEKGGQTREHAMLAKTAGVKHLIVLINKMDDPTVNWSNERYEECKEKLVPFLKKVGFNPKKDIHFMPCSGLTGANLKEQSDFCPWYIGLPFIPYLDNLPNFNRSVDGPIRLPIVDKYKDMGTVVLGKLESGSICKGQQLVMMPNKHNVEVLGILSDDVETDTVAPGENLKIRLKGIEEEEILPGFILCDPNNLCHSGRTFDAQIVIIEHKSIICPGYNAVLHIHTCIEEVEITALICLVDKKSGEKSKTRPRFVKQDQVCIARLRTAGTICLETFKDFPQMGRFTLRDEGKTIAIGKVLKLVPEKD
GSPT1 protein, sequence (Q96SW2 whole entry): as the sequence (Q96SW2 whole entry) above
GSPT1 protein, sequence (Q16531 whole entry partner): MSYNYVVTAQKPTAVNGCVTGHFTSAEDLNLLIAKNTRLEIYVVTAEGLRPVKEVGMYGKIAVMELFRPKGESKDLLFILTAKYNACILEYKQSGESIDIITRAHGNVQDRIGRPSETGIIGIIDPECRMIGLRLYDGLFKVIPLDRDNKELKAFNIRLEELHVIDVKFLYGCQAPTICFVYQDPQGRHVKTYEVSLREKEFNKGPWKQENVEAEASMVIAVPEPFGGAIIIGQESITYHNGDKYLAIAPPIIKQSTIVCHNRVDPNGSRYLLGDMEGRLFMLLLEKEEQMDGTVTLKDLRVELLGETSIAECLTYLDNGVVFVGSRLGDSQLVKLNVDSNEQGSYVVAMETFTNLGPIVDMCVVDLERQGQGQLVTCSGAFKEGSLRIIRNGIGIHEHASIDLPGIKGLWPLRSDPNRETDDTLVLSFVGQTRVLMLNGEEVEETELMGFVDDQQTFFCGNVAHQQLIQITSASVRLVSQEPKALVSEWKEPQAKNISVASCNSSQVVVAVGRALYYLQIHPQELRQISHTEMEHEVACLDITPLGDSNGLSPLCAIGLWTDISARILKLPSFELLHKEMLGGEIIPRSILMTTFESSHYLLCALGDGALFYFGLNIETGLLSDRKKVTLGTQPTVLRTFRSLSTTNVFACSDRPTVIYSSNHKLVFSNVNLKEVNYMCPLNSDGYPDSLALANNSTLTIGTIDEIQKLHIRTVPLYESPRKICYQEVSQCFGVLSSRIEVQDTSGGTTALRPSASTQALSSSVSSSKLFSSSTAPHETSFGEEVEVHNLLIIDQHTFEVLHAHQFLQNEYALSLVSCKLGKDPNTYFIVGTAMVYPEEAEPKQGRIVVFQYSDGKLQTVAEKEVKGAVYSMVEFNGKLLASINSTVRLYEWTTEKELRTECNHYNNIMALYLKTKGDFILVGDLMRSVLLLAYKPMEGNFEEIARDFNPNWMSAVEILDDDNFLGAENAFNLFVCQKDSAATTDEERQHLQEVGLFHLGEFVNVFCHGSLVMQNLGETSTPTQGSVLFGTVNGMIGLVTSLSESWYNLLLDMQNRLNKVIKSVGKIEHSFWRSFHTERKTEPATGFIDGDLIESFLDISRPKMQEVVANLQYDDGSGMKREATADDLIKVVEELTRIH
Protocol: as §1, §2, §3

IKZF3 protein = IKZF3 protein (Homo sapiens (Human), UniProt Q96SW2+Q9UKT9); assay: Western-blot assay of substrate protein degradation in hPBMC, IKZF3; format: cell-based; details: hPBMC cells, compound 500 nM, 24 hours, Western blot
IKZF3 protein, sequence (Q9UKT9 whole entry): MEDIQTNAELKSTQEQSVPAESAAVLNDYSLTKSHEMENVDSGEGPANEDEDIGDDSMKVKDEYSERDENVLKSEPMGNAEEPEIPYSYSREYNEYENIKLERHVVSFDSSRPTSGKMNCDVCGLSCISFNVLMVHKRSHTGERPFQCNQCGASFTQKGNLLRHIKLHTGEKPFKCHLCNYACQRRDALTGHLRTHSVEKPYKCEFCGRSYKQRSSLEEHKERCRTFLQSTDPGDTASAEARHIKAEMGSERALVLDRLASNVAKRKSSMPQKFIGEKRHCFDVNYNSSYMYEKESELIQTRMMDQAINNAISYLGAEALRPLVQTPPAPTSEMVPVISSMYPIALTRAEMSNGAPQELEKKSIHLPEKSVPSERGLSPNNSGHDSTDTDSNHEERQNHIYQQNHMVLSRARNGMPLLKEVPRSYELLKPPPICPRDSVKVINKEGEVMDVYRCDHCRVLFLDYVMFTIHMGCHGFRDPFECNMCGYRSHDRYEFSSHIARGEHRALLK
IKZF3 protein, sequence (Q96SW2 whole entry): as the sequence (Q96SW2 whole entry) above
IKZF3 protein, sequence (Q16531 whole entry partner): as the sequence (Q16531 whole entry partner) above
Protocol: as §1, §2, §3

IKZF1 protein, sequence (Q13422 whole entry): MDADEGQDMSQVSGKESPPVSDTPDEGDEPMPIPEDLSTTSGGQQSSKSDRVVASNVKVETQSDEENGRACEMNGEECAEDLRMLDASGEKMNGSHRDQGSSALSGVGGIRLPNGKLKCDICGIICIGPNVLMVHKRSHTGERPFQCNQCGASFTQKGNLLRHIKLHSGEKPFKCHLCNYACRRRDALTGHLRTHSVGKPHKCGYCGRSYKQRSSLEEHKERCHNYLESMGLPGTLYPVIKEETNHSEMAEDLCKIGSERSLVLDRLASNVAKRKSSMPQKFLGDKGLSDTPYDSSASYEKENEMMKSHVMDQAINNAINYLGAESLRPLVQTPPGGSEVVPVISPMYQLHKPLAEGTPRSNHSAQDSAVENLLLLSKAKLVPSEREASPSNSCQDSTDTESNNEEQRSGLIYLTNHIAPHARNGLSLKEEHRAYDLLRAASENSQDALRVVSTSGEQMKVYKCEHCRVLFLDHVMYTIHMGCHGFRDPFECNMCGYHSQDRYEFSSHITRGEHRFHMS
IKZF1 protein, sequence (Q96SW2 whole entry): as the sequence (Q96SW2 whole entry) above
IKZF1 protein, sequence (Q16531 whole entry partner): as the sequence (Q16531 whole entry partner) above

SMILES	IC50 [1] [nM]	residual substrate protein level, IKZF1 (IKZF1 protein)	residual substrate protein level, GSPT1 (GSPT1 protein)	residual substrate protein level, IKZF3 (IKZF3 protein)
O=C1CCC(N2Cc3cc(CN4CCN(Cc5ccccc5-c5ccc(F)cc5)CC4)cc(F)c3C2=O)C(=O)N1 (stereo not shown) [GT-05604, 3-(7-fluoro-5-((4-((4′-fluoro-[1,1′-biphenyl]-2-yl)methyl)piperazin-1-yl)methyl)-1-oxoisoindolin-2-yl)piperidine-2,6-dione]	720	B (B represents a residual substrate protein level of >50%)	A (A represents a residual substrate protein level of <50%)	B (B represents a residual substrate protein level of >50%)
CC1(C)CCC(C(=O)N2CCN(Cc3ccc4c(c3)CN(C3CCC(=O)NC3=O)C4=O)C(C(F)(F)F)C2)=C(c2ccc(Cl)cc2)C1 (stereo not shown) [GT-05845, 3-(5-((4-(4′-chloro-5,5-dimethyl-3,4,5,6-tetrahydro-[1,1′-biphenyl]-2-carbonyl)-2-(trifluoromethyl)piperazin-1-yl)methyl)-1-oxoisoindolin-2-yl)piperidine-2,6-dione]	760	B (B represents a residual substrate protein level of >50%)	B (B represents a residual substrate protein level of >50%)	A (A represents a residual substrate protein level of <50%)
O=C1CCC(N2Cc3cc(C(=O)N4CC5CCC(C4)N5Cc4ccccc4-c4ccc(Cl)cc4)ccc3C2=O)C(=O)N1 (stereo not shown) [GT-05621, 3-(5-(8-((4′-chloro-[1,1′-biphenyl]-2-yl)methyl)-3,8-diazabicyclo[3.2.1]octane-3-carbonyl)-1-oxoisoindolin-2-yl)piperidine-2,6-dione]	1100	B (B represents a residual substrate protein level of >50%)	A (A represents a residual substrate protein level of <50%)	B (B represents a residual substrate protein level of >50%)
O=C1CCC(N2Cc3cc(CN4CCN(C(=O)C5=C(c6ccc(F)cc6)CCCC5)CC4)c(F)cc3C2=O)C(=O)N1 (stereo not shown) [GT-05473, 3-(6-fluoro-5-((4-(4′-fluoro-3,4,5,6-tetrahydro-[1,1′-biphenyl]-2-carbonyl)piperazin-1-yl)methyl)-1-oxoisoindolin-2-yl)piperidine-2,6-dione]	1160	B (B represents a residual substrate protein level of >50%)	A (A represents a residual substrate protein level of <50%)	B (B represents a residual substrate protein level of >50%)
O=C1CCC(N2Cc3cc(C(=O)N4CC5CCC4CN5Cc4ccccc4-c4ccc(Cl)cc4)ccc3C2=O)C(=O)N1 (stereo not shown) [GT-05622, 3-(5-(5-((4′-chloro-[1,1′-biphenyl]-2-yl)methyl)-2,5-diazabicyclo[2.2.2]octane-2-carbonyl)-1-oxoisoindolin-2-yl)piperidine-2,6-dione]	910	B (B represents a residual substrate protein level of >50%)	A (A represents a residual substrate protein level of <50%)	B (B represents a residual substrate protein level of >50%)
CC1(C)CCC(CN2CCN(Cc3ccc4c(c3)CN(C3CCC(=O)NC3=O)C4=O)C(C(F)(F)F)C2)=C(c2ccc(F)cc2)C1 (stereo not shown) [GT-05846, 3-(5-((4-((4′-fluoro-5,5-dimethyl-3,4,5,6-tetrahydro-[1,1′-biphenyl]-2-yl)methyl)-2-(trifluoromethyl)piperazin-1-yl)methyl)-1-oxoisoindolin-2-yl)piperidine-2,6-dione]	940	B (B represents a residual substrate protein level of >50%)	A (A represents a residual substrate protein level of <50%)	B (B represents a residual substrate protein level of >50%)
O=C1CCC(N2Cc3c(ccc(CN4CCN(C(=O)C5=C(c6ccc(F)cc6)CCCC5)CC4)c3F)C2=O)C(=O)N1 (stereo not shown) [GT-05472, 3-(4-fluoro-5-((4-(4′-fluoro-3,4,5,6-tetrahydro-[1,1′-biphenyl]-2-carbonyl)piperazin-1-yl)methyl)-1-oxoisoindolin-2-yl)piperidine-2,6-dione]	1120	B (B represents a residual substrate protein level of >50%)	A (A represents a residual substrate protein level of <50%)	B (B represents a residual substrate protein level of >50%)
CC1(C)CCC(C(=O)N2CC3CCC2CN3Cc2ccc3c(c2)CN(C2CCC(=O)NC2=O)C3=O)=C(c2ccc(Cl)cc2)C1 (stereo not shown) [GT-05662, 3-(5-((5-(4′-chloro-5,5-dimethyl-3,4,5,6-tetrahydro-[1,1′-biphenyl]-2-carbonyl)-2,5-diazabicyclo[2.2.2]octan-2-yl)methyl)-1-oxoisoindolin-2-yl)piperidine-2,6-dione]	710	B (B represents a residual substrate protein level of >50%)	B (B represents a residual substrate protein level of >50%)	A (A represents a residual substrate protein level of <50%)

The next molecules have a lower IC50 [1] than those just listed; values first:

IC50 [1] [nM]	SMILES	residual substrate protein level, IKZF1 (IKZF1 protein)	residual substrate protein level, GSPT1 (GSPT1 protein)	residual substrate protein level, IKZF3 (IKZF3 protein)
650	O=C1CCC(N2Cc3cc(CN4CC5(CCN(Cc6ccccc6-c6ccc(Cl)cc6)CC5)C4)ccc3C2=O)C(=O)N1 (stereo not shown) [GT-05612, 3-(5-((7-((4′-chloro-[1,1′-biphenyl]-2-yl)methyl)-2,7-diazaspiro[3.5]nonan-2-yl)methyl)-1-oxoisoindolin-2-yl)piperidine-2,6-dione]	A (A represents a residual substrate protein level of <50%)	B (B represents a residual substrate protein level of >50%)	A (A represents a residual substrate protein level of <50%)
590	CC1(C)CCC(CN2CC3CC2CN3Cc2ccc3c(c2)CN(C2CCC(=O)NC2=O)C3=O)=C(c2ccc(F)cc2)C1 (stereo not shown) [GT-05401, 3-(5-((5-((4′-fluoro-5,5-dimethyl-3,4,5,6-tetrahydro-[1,1′-biphenyl]-2-yl)methyl)-2,5-diazabicyclo[2.2.1]heptan-2-yl)methyl)-1-oxoisoindolin-2-yl)piperidine-2,6-dione]	B (B represents a residual substrate protein level of >50%)	B (B represents a residual substrate protein level of >50%)	A (A represents a residual substrate protein level of <50%)
550	CC1(C)CCC(CN2CC3CCC2CN3Cc2ccc3c(c2F)CN(C2CCC(=O)NC2=O)C3=O)=C(c2ccc(Cl)cc2)C1 (stereo not shown) [GT-04168, 3-(5-((5-((4′-chloro-5,5-dimethyl-3,4,5,6-tetrahydro-[1,1′-biphenyl]-2-yl)methyl)-2,5-diazabicyclo[2.2.2]octan-2-yl)methyl)-4-fluoro-1-oxoisoindolin-2-yl)piperidine-2,6-dione]	B (B represents a residual substrate protein level of >50%)	A (A represents a residual substrate protein level of <50%)	B (B represents a residual substrate protein level of >50%)
460	O=C1CCC(N2Cc3cc(CN4CCN(CC5=C(c6ccc(F)cc6)CCCC5)CC4)ccc3C2=O)C(=O)N1 (stereo not shown) [GT-04193, 3-(5-((4-((4′-fluoro-3,4,5,6-tetrahydro-[1,1′-biphenyl]-2-yl)methyl)piperazin-1-yl)methyl)-1-oxoisoindolin-2-yl)piperidine-2,6-dione]	A (A represents a residual substrate protein level of <50%)	A (A represents a residual substrate protein level of <50%)	A (A represents a residual substrate protein level of <50%)
430	CC1(C)CCC(C(=O)N2CC3CCC2CN3Cc2ccc3c(c2)CN(C2CCC(=O)NC2=O)C3=O)=C(c2ccc(F)cc2)C1 (stereo not shown) [GT-05402, 3-(5-((5-(4′-fluoro-5,5-dimethyl-3,4,5,6-tetrahydro-[1,1′-biphenyl]-2-carbonyl)-2,5-diazabicyclo[2.2.2]octan-2-yl)methyl)-1-oxoisoindolin-2-yl)piperidine-2,6-dione]	B (B represents a residual substrate protein level of >50%)	B (B represents a residual substrate protein level of >50%)	A (A represents a residual substrate protein level of <50%)
